Source: patent US20030190370A1, “Antibacterial agents, and antibacterial and deodorizing solution comprising the same” (priority 2000, published 2003)

What was measured:
[1] = Investigation of discoloration resistance (UV exposure, judged by eye); type: physicochemical; conditions: in tap water, complexes diluted to 2% (10-40 ppm silver ion), silver compounds 40 ppm, UV 2 hr
[2] = tested on: Yeast (Trentopholia odorata); assay: Minimum growth inhibition concentration, test-tube dilution method; type: cell-based
Protocol: (§1) The minimum growth inhibition concentration was measured using test-tube dilution method in order to evaluate the antibacterial activity of the silver complexes obtained in Examples 1-5.

[3] = tested on: E. coli (Escherichia coli ATCC 25922); assay: as above; type: cell-based; conditions: E. coli ATCC 25922
Protocol: as §1

[4] = tested on: Staphylococcus aureus ATCC 6538P; assay: as above; type: cell-based
Protocol: as §1

[5] = tested on: Staphylococcus aureus ATCC 25923; assay: as above; type: cell-based
Protocol: as §1

[6] = tested on: E. coli O-157 (Escherichia coli ATCC 43895); assay: as above; type: cell-based; conditions: E. coli O-157 ATCC 43895
Protocol: as §1

[7] = tested on: (Candida Albicans ATCC 11651); assay: as above; type: cell-based
Protocol: as §1

[8] = tested on: Trichophyton rubrum ATCC 28188; assay: as above; type: cell-based
Protocol: as §1

| Compound | Discoloration [1] | Minimum Growth Inhibition Concentration [2] | Minimum Growth Inhibition Concentration [3] | Minimum Growth Inhibition Concentration [4] | Minimum Growth Inhibition Concentration [5] | Minimum Growth Inhibition Concentration [6] | Minimum Growth Inhibition Concentration [7] | Minimum Growth Inhibition Concentration [8] |
| --- | --- | --- | --- | --- | --- | --- | --- | --- |
| O=C([O-])c1ccccc1.[Ag+] [Silver benzoate solution, silver beiizoate, reference compound] | 1 | – | – | – | – | – | – | – |
| O=[N+]([O-])[O-].[Ag+] [Silver nitrate solution, silver nitrate, reference compound] | 1 | – | – | – | – | – | – | – |
| Silver-diethanolamine Complex [Example 5] | 3 | <1 ppm | 1 ppm | 7 ppm | 6 ppm | 3 ppm | 1 ppm | 2 ppm |
| Silver-triethanolamine Complex [Example 4] | 3 | <1 ppm | 1 ppm | 5 ppm | 5 ppm | 3 ppm | 1 ppm | 2 ppm |
